Results as given in US11421006B2, “T cell epitopes from Cockroach and methods of making and using same” (LA JOLLA INSTITUTE FOR ALLERGY AND IMMUNOLOGY, priority 2012, dated 2022).
Several values for one entry are separate records, joined by “and”; a condition that tells them apart may be missing. Equal entries are not always repeated.

Tested on: Bla g-specific T cells (PBMC)
Assay: ELISPOT assays: IL-5, IFN-γ and IL-10 production by in vitro expanded PBMC of Cockroach-allergic donors
Type: cell-based, human
Conditions: for IFNγ / IL-5: individual peptide, one line per responding donor; for Total SFCs: IL-5 plus IFN-γ, summed over responding donors; for Cumulative Response: cumulative over regions ranked by total SFCs; for Donors Responding: number of allergic donors (34 tested) with T cell response to the region; for % Total Response: share of total Bla g specific response; for POST-SIT IFNg / POST-SIT IL-5 / POST-SIT IL-10: 6 months after initiation of SIT; for PRE-SIT IL-5 / PRE-SIT IL-10 / PRE-SIT IFNg: before SIT; for PRE-SIT IFNg: one line per donor/peptide
Protocol: In vitro expansion of Bla g-specific T cells: PBMC were cultured in RPMI 1640 (V Scientific, Tarzana, Calif.) supplemented with 5% human serum (Cellgro, Herndon, Va.) at a density of 2×10^6 cells/ml in 24-well plates (BD Biosciences, San Jose, Calif.) and stimulated with 25 μg/ml German Cockroach (Blatella germanica; Bla g) extract (Greer, Lenoir, N.C.), or individual peptides. […] On day 14, cells were harvested and screened for reactivity against Bla g-specific peptide pools or individual peptides. ELISPOT assays: The production of IL-5, IFN-γ, and IL-10 was analyzed in ELISPOT assays. […] Cells were then incubated at a density of 1×10^5/well either with peptide pools or individual peptides (10 μg/ml), German Cockroach extract (25 μg/ml), PHA (10 μg/ml), or medium (containing 1% DMSO corresponding to the percentage of DMSO in the pools/peptides) as a control. […] Louis, Mo.). Spots were counted by computer-assisted image analysis (Zeiss, KS-ELISPOT reader, Munich, Germany). Each assay was performed in triplicate. The level of statistical significance was determined with a Student's t-test using the mean of triplicate values of the response against relevant pools or individual peptides versus the response against the DMSO control.

Sequence | IFNγ | IL-5 | Total SFCs [SFCs] | Cumulative Response [%] | Donors Responding | % Total Response [%] | T cell response pattern (IL-5 / IFN-γ), in words | POST-SIT IFNg [SFC/10^6] | POST-SIT IL-5 [SFC/10^6] | POST-SIT IL-10 [SFC/10^6] | PRE-SIT IL-5 [SFC/10^6] | PRE-SIT IL-10 [SFC/10^6] | PRE-SIT IFNg [SFC/10^6]
ALREKVLGLPAIKAW (listed as Blattella germanica) | 843 SFC and 100 SFC and 0 SFC and 183 SFC and 147 SFC and 1690 SFC | 0 SFC (3×) and 267 SFC and 380 SFC and 1087 SFC |  |  |  |  |  |  |  |  |  |  | 
EAMEKELREAFRLYD (listed as Blattella germanica) [Region 21, Bla g 6 position 86] | 0 SFC | 53 SFC | 53 | 99.8 | 1 | 0.2 |  |  |  |  |  |  | 
EEFVSLASRFLVEED (listed as Blattella germanica) | 220 SFC | 0 SFC |  |  |  |  |  |  |  |  |  |  | 
EFVTLAAKFIIEEDS (listed as Blattella germanica) [Region 19, Bla g 6 position 71] | 0 SFC | 443 SFC | 443 | 91.8 | 1 | 1.8 |  |  |  |  |  |  | 
EQISVLRKAFDAFDR (listed as Blattella germanica) | 0 SFC | 340 SFC |  |  |  |  |  |  |  |  |  |  | 
EVVKANGGYLAAGKL (listed as Blattella germanica) | 80 SFC and 380 SFC | 467 SFC and 0 SFC |  |  |  |  |  |  |  |  |  |  | 
FAVATITHAAELQRV (listed as Blattella germanica) [Region 5, Bla g 2 position 11] | 855 SFC | 0 SFC | 855 | 86.9 | 1 | 3.5 | only associated with IFN-γ production |  |  |  |  |  | 
FETIVVTVDSLPEFK (listed as Blattella germanica) [Region 1, Bla g 1 position 351] | 167 SFC | 0 SFC | 167 | 98.5 | 1 | 0.7 |  |  |  |  |  |  | 
FLLSYGEKDFEDYRF (listed as Blattella germanica) | 0 SFC (2×) and 77 SFC and 127 SFC | 1537 SFC and 0 SFC and 203 SFC and 193 SFC |  |  |  |  |  |  |  |  |  |  | 
GEPIRFLLSYGEKDF (listed as Blattella germanica) | 205 SFC | 0 SFC |  |  |  |  |  |  |  |  |  |  | 
GNQNFLTVFDSTSCN (listed as Blattella germanica) [Region 7, Bla g 2 position 46] | 55 SFC | 0 SFC | 55 | 99.6 | 1 | 0.2 | only associated with IFN-γ production |  |  |  |  |  | 
GYITTNVLREILKEL (listed as Blattella germanica) [Region 25] | 0 SFC | 50 SFC | 50 | 100.0 | 1 | 0.2 |  | 0 | 0 | 0 | 50 | 0 | 0
HFFIGDFFVDHYYSE (listed as Blattella germanica) [Region 9, Bla g 2 position 321] | 250 SFC | 0 SFC | 250 | 96.8 | 1 | 1.0 |  |  |  |  |  |  | 
HMAKEDLVANQPNLK (listed as Blattella germanica) | 610 SFC | 273 SFC |  |  |  |  |  |  |  |  |  |  | 
ISSQYYIQQNGNLCY (listed as Blattella germanica) [Region 8, Bla g 2 position 296] | 153 SFC | 0 SFC | 153 | 99.1 | 1 | 0.6 |  |  |  |  |  |  | 
IVQTLNAMPEYQNLL (listed as Blattella germanica) | 153 SFC | 87 SFC |  |  |  |  |  |  |  |  |  |  | 
LRKAFDAFDREKSGS (listed as Blattella germanica) | 90 SFC | 327 SFC |  |  |  |  |  |  |  |  |  |  | 
MVGTILEMLGHRLDD (listed as Blattella germanica) [Region 24, Bla g 6 position 31] | 0 SFC | 50 SFC | 317 | 95.8 | 2 | 1.3 |  | 0 | 0 | 0 | 50 | 0 | 0
MVGTILEMLGTRLDQ (listed as Blattella germanica) | 0 SFC | 267 SFC |  |  |  |  |  |  |  |  |  |  | 
PEFQSIVQTLNAMPE (listed as Blattella germanica) | 87 SFC | 0 SFC |  |  |  |  |  |  |  |  |  |  | 
PEFQSIVQTLNAMPEYQNLL (listed as Blattella germanica) [Region 3, Bla g 1 position 40] |  |  | 327 | 93.2 | 2 | 1.3 |  | 0 | 0 | 0 | 87 | 0 | 153
PELQNFLNFLEANGL (listed as Blattella germanica) [Region 4, Bla g 1 position 281] | 323 SFC | 0 SFC | 323 | 94.5 | 1 | 1.3 |  |  |  |  |  |  | 
PEQIQLLKKAFDAFD (listed as Blattella germanica) [Region 23, Bla g 6 position 6] | 0 SFC | 1172 SFC and 73 SFC | 1245 | 66.6 | 2 | 5.1 | only IL-5 production |  |  |  |  |  | 
PLYKLVHVFINTQYA (listed as Blattella germanica) [Region 6, Bla g 2 position 26] | 240 SFC | 0 SFC | 240 | 97.8 | 1 | 1.0 |  |  |  |  |  |  | 
SGTVDFDEFMEMMTG (listed as Blattella germanica) [Region 22, Bla g 6 position 140] | 0 SFC | 57 SFC | 57 | 99.4 | 1 | 0.2 |  |  |  |  |  |  | 
SMPFGKTPVLEIDGK (listed as Blattella germanica) [Region 11, Bla g 5 position 46] | 57 SFC and 250 SFC | 0 SFC and 567 SFC | 874 | 83.4 | 2 | 3.6 |  |  |  |  |  |  | 
VLGLPAIKAWVAKRP (listed as Blattella germanica) | 50 SFC and 73 SFC | 0 SFC and 133 SFC |  |  |  |  |  |  |  |  |  |  | 
